Reference: patent US20230029570A1, “Bacillus Strain for Applications in Agriculture, Livestock Health and Environmental Protection” (Locus IP Company, LLC, priority 2020, published 2023)

Columns and labels:
Staphylococcus sp. = assay: Reduction in optical density at 600 nm of Staphylococcus sp. cultures treated with cleaning compositions; format: cell-based
Method: Cleaning compositions according to embodiments of the subject invention were also tested for their ability to control a Gram-positive Staphylococcus sp. Reduction in optical density at 600 nm (OD) was measured for cultures treated with each of the following compositions: […]

E. coli = assay: Reduction in optical density at 600 nm of E. coli cultures treated with cleaning compositions; format: cell-based; conditions: 250 ppm
Method: The lipopeptide mixture produced by B. amy can be used in environmentally-friendly cleaning compositions and to enhance antimicrobial activity of other biosurfactants. Cleaning compositions were tested for their ability to control Gram-negative E. coli. Reduction in optical density at 600 nm (OD) was measured for cultures treated with each of the following compositions: […]

| Substance | OD600 % reduction after 2 hours (Staphylococcus sp.; 250 ppm) [%] | OD600 % reduction after 2 hours (E. coli) [%] | OD600 % reduction after 2 hours (Staphylococcus sp.; 100 ppm) [%] | OD600 % reduction after 2 hours (Staphylococcus sp.; 50 ppm) [%] |
| --- | --- | --- | --- | --- |
| linear SLP butyl ester | 88.1 | 91.5 | – | – |
| linear SLP ethyl ester | – | 89.8 | 98.3 | – |
| linear SLP isopropyl ester | – | 86.4 | – | 91.5 |
